Test results from patent US20240238244A1, “USE OF A COMPOUND SUCH AS […] TREATING A VIRAL PULMONARY DISEASE” (4LIVING BIOTECH, priority 2021, published 2024).
Values joined by “and” are separate entries in the source; they are usually repeats but may differ in a detail not shown here. Identical values can stand only once. Like-named read-outs stand apart in the source and are kept apart here.

Tests used:
[1] = tested on: H3N2 influenza A virus strain Scotland/20/74; settings: day 7; for Mean necrosis/cell death score: Influenza group 0.90; for Mean edema/HM/congestion score: Influenza group 1.50; for Mean inflammation score: Influenza group 1.90; for Mean total score according to Meyerholz and Beck: Influenza group 4.50
[2] = tested on: H3N2 influenza A virus strain Scotland/20/74
[3] = tested on: H3N2 influenza A virus strain Scotland/20/74; settings: day 7; for Percentage of fibrocytes recruited in the lung: Infected group 28.05±26.78%, Not-infected 7.58±1.70%
Experimental: Treatments were administered twice a day subcutaneously (SC) in mice from day 1 to day 6 by grasping the skin along back of mice. The needle was inserted at base of skin old between thumb and finger and solution was injected. Plerixafor® was administered (100 μl) twice a day to group “Infected+Plerixafor 1 mg/kg”, “Infected+Plerixafor 3 mg/kg”, and “Infected+Plerixafor 10 mg/kg”. Thus, mice received daily 1, 3 and 10 mg/kg for 7 days for group “Infected+Plerixafor 1 mg/kg”, “Infected+Plerixafor 3 mg/kg”, and “Infected+Plerixafor 10 mg/kg” respectively. Group “Infected” received water twice a day (100 μl).
The percentage of general fibrocytes was evaluated in lung by flow cytometry analysis. The proportion of fibrocytes was assessed using a combination of Antibody/Fluorochrome, i.e. CD45+, FSP1+, and their viability was assessed using the Live Dead cell viability assay. For each tested condition, a general gating strategy was followed to identify the different sub-populations. First, cells of interest were selected according to granulometry and size events via the FSC-H (Forward Scatter Height) and SSC-H (Side Scatter Height) parameters. Then, on the selected cells, fibrocytes were identified as CD45+/FSP1+ cells.
The percentage of fibrocytes recruited in the lung was evaluated at day 7 for 4 mice per group (3 for non-infected group).

[4] = tested on: H3N2 influenza A virus strain Scotland/20/74; settings: day 7; for Mean IL-17 levels in lung homogenates: Influenza group 575.58, non-infected 874.47; for Mean IL-1β levels in lung homogenates: Influenza group 3502.64, non-infected 1347.22; for Mean TNFα levels in lung homogenates: Influenza group 11038.49, non-infected 11879.58; for Mean IL-6 levels in lung homogenates: Influenza group 15055.10, non-infected 2412.49; for Mean C5a levels in lung homogenates: Influenza group 3758066.67, non-infected 2540416.67; for Mean CRP levels in lung homogenates: Influenza group 9243070.24, non-infected 2718616.67
[5] = Plerixafor 2.5 mg/kg daily SC (group 3M)
[6] = Plerixafor 5 mg/kg daily SC (group 4M)
[7] = Plerixafor 10 mg/kg daily SC (group 5M)
[8] = Plerixafor 20 mg/kg daily SC (group 6M)
[9] = Plerixafor 20 mg/kg daily SC (group 6M), p<0.01
[10] = Plerixafor at 2, 5, 5, 10 and 20 mg/kg
[11] = Plerixafor at 2, 5, 5 and 10 mg/kg

c1cc(CN2CCCNCCNCCCNCC2)ccc1CN1CCCNCCNCCCNCC1 [Plerixafor, 1,1′-[1,4-phenylene-bis(methylene)]-bis-1,4,8,11-tetraazacyclotetradecane]
Mean necrosis/cell death score [1, 5]: 0.50
Mean edema/HM/congestion score [1, 5]: 0.70
Mean inflammation score [1, 5]: 1.40
Mean total score according to Meyerholz and Beck [1, 5]: 2.70
Mean necrosis/cell death score [1, 6]: 0.80
Mean edema/HM/congestion score [1, 6]: 0.90
Mean inflammation score [1, 6]: 2.00
Mean total score according to Meyerholz and Beck [1, 6]: 4.00
Mean necrosis/cell death score [1, 7]: 0.50
Mean edema/HM/congestion score [1, 7]: 0.50
Mean inflammation score [1, 7]: 1.70
Mean total score according to Meyerholz and Beck [1, 7]: 2.90
Mean necrosis/cell death score [1, 8]: 0.40±0.70 and 0.40
Mean edema/HM/congestion score [1, 8]: 0.60±0.52 and 0.60
Mean inflammation score [1, 8]: 1.60±1.17 and 1.60
Mean total score according to Meyerholz and Beck [1, 8]: 2.80±2.35 and 2.80
Severity, distribution and incidence of pulmonary lesions in comparison to influenza treated mice ([1]; groups 3M, 4M, 5M and 6M (Plerixafor 2.5, 5, 10, 20 mg/kg daily SC)): slightly lower
BW (body weight) 7 days after the infection ([2]; Plerixafor 20 mg/kg daily (10 mg/kg SC twice a day, day 1 to 6), day 7, influenza group 94±5%, non-infected 103±4%, p<0.05): 97±5%
Modulation of BW loss ([2]; Plerixafor at doses inferior or equal to 10 mg/kg daily, SC twice a day, day 1 to 6): did not modulate BW loss
Percentage of fibrocytes recruited in the lung ([3]; Infected+Plerixafor 1 mg/kg daily SC): 19.77±19.93%
Percentage of fibrocytes recruited in the lung ([3]; Infected+Plerixafor 3 mg/kg daily SC): 12.90±5.44%
Percentage of fibrocytes recruited in the lung ([3]; Infected+Plerixafor 10 mg/kg daily SC): 23.86±18.39%
Effect on the recruitment of fibrocytes in the lung ([3]; whatever the Plerixafor dosage tested (1, 3, 10 mg/kg daily), no dose-effect): does not affect significantly
Mean IL-17 levels in lung homogenates [4, 5]: 748.08 pg/ml/g of tissue
Mean IL-1β levels in lung homogenates [4, 5]: 4317.27 pg/ml/g of tissue
Mean TNFα levels in lung homogenates [4, 5]: 8983.01 pg/ml/g of tissue
Mean IL-6 levels in lung homogenates [4, 5]: 11166.93 pg/ml/g of tissue
Mean C5a levels in lung homogenates [4, 5]: 3699919.44 pg/ml/g of tissue
Mean CRP levels in lung homogenates [4, 5]: 9241738.89 pg/ml/g of tissue
Mean IL-17 levels in lung homogenates [4, 6]: 663.57 pg/ml/g of tissue
Mean IL-1β levels in lung homogenates [4, 6]: 2534.11 pg/ml/g of tissue
Mean TNFα levels in lung homogenates [4, 6]: 9307.38 pg/ml/g of tissue
Mean IL-6 levels in lung homogenates [4, 6]: 11059.46 pg/ml/g of tissue
Mean C5a levels in lung homogenates [4, 6]: 3440259.52 pg/ml/g of tissue
Mean CRP levels in lung homogenates [4, 6]: 7792352.38 pg/ml/g of tissue
Mean IL-17 levels in lung homogenates [4, 7]: 799.98 pg/ml/g of tissue
Mean IL-1β levels in lung homogenates [4, 7]: 3319.66 pg/ml/g of tissue
Mean TNFα levels in lung homogenates [4, 7]: 11138.01 pg/ml/g of tissue
Mean IL-6 levels in lung homogenates [4, 7]: 13927.98 pg/ml/g of tissue
Mean C5a levels in lung homogenates [4, 7]: 3519038.68 pg/ml/g of tissue
Mean CRP levels in lung homogenates [4, 7]: 8406400.43 pg/ml/g of tissue
Mean IL-17 levels in lung homogenates [4, 8]: 603.22 pg/ml/g of tissue
Mean IL-1β levels in lung homogenates [4, 8]: 2805.78 pg/ml/g of tissue
Mean TNFα levels in lung homogenates [4, 8]: 6224.51±3014.54 pg/ml/g of tissue and 6224.51 pg/ml/g of tissue
Mean IL-6 levels in lung homogenates ([4]; Plerixafor 20 mg/kg daily SC (group 6M), p<0.05): 5408.82±3539.57 pg/ml/g of tissue and 5408.82 * pg/ml/g of tissue
Mean C5a levels in lung homogenates [4, 9]: 2220172.76±972810.94 pg/ml/g of tissue and 2220172.76 pg/ml/g of tissue
Mean CRP levels in lung homogenates [4, 9]: 4488307.08±2059120.87 pg/ml/g of tissue and 4488307.08 pg/ml/g of tissue
Modulation of IL-1β levels [4, 10]: did not significantly modulate
Modulation of IL-17 levels [4, 10]: did not significantly modulate
Modulation of C5a levels [4, 11]: did not significantly modulate
Modulation of IL-6 levels in comparison to Influenza group [4, 11]: did not significantly modulate
Modulation of TNFα levels [4, 11]: did not significantly modulate
Modulation of CRP levels ([4]; Plerixafor at 2.5, 5 and 10 mg/kg): did not significantly modulate
